Laboratory results reported in article PMC10786919, “Design-rules for stapled peptides with in vivo activity and their application to Mdm2/X antagonists” (Nature Communications, 2024).
≈ marks a conversion by molar mass, not a printed value. Where two headings read alike, the source gives them in different places. Positions of bridges follow the written chain, without caps; N, C: chain ends. Non-standard residues stand in square brackets, D forms with d. Residues, ends and D or L forms follow the SMILES beside them. Lys(N3) = [N-]=[N+]=NCCCC[C@H](N)C(=O)O; Gla = N[C@@H](CC(C(=O)O)C(=O)O)C(=O)O; R8 = C=CCCCCCC[C@@](C)(N)C(=O)O; Cba = N[C@@H](CC1CCC1)C(=O)O; S5 = C=CCCC[C@](C)(N)C(=O)O; Ahx = NCCCCCC(=O)O; βAla = NCCC(=O)O

Key:
[1] = Lactate dehydrogenase (LDH) release assay; format: cell-based
Outline: (§1)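 Read-out was lactate dehydrogenase release, reflecting loss of membrane integrity, in reporter-engineered HCT116 cells (p53-responsive β-lactamase) seeded at 8000 cells per well. Final DMSO was 0.5%, and reported values are geometric means from three or more biological repeats.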

[2] = test system: p53 responsive β-lactamase reporter in HCT116 cells; experiment: cells; format: cell-based
Outline: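 HCT116 cells stably carrying a p53-responsive β-lactamase reporter, seeded at 8000 cells/well, with 0.5% DMSO final. Reporter activity read by ToxBLAzer Dual Screen. Values are geometric means of at least three biological replicates.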

[3] = Solubility assay (kinetic solubility, PBS pH 7); format: physicochemical
Outline: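 Next, measure peak areas of sample and standard. Finally, multiply their ratio by the standard concentration to obtain solubility (µM).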

in vitro = experiment: in vitro
Outline: (§2)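 Azido-peptide permeability was read as loss of NanoBRET signal (donor 450 nm, acceptor 610 nm) after adding NanoBret618-azide at 10 μM final.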

[4] = test system: cells transiently transfected with the NanoLuc-HaloTag vector; experiment: Nanoclick permeability assay; settings: for Nanoclick permeability assay % Effect: 4Hr
Outline: as §2

[5] = test system: Jump-In T-REx CHO-K1 BLA cells; experiment: cells; format: cell-based; settings: for EC50: read-out: TETCHO: Counterscreen EC50
[6] = Experimental LogD (partition coefficient); settings: not stated, Partition Coeff LogD
HCT116 cells = experiment: Lactate dehydrogenase (LDH) release assay; format: cell-based
Outline: as §1

[7] = test system: CellSensor p53RE-bla HCT-116 Cell Line; settings: read-out: Proliferation EC50 HCT116 (On-target); HCT116
Outline: (§3)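 Compound dilution series (10 points, 3-fold, 10 mM top stock in DMSO) tested on overnight-plated Ca Ski cells in RPMI1640/10% FBS and on blasticidin-selected p53RE-bla HCT-116 cells in McCoy's 5A; read-out was CellTiter-Glo 2.0 luminescence after room-temperature equilibration.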

Ca Ski cell line = settings: Ca Ski
Outline: as §3

EPSA = format: physicochemical; settings: EPSA
human Mdm2 1–125 = biological target: T1, human Mdm2 1–125 (Homo sapiens, UniProt Q00987); experiment: Mdm2 binding by competitive fluorescence anisotropy assay (FP binding); settings: Binding KD
T1 construct: GST (N); His6 (internal); TEV cleavage site (ENLYFQG) (internal); made in house; host or cells: BL21 (DE3) Rosetta T1R Escherichia coli
Text: The TEV (tobacco etch virus) cleavage site was changed from ENLYFQS to ENLYFQG to give a fusion protein with the following sequence:
[P] is the protein concentration (Mdm2), [L] is the labeled peptide concentration, r is the anisotropy measured, r0 is the anisotropy of the free peptide, rb is the anisotropy of the Mdm2–FAM-labeled peptide complex, Kd is the dissociation constant, [L]t is the total FAM labeled peptide concentration, and [P]t is the total Mdm2 concentration. […] This value was then used to determine apparent Kd values of the respective competing ligands in subsequent competition assays in fluorescence anisotropy experiments.
The competing molecules were then titrated against the complex of the FAM-labeled peptide and protein. Apparent Kd values were determined by fitting the experimental data to equations shown below:2 r=ro+(rb−ro)×2(d^2−3e)cos(θ/3)−9/3Kd1+2(d^2−3e)cos(θ/3)−d 3 d=Kd1+Kd2+[L]st+[L]t−Pt 4 e=Lt−PtKd1+Lst+PtKd2+Kd1Kd2 5 f=−Kd1Kd2[P]t 6 θ=arcos−2d^3+9de−27f/2(d^2−3e)^3
[L]st and [L]t denote labeled ligand and total unlabeled ligand input concentrations, respectively. Kd2 is the dissociation constant of the interaction between the unlabeled ligand and the protein. In all competition experiments, it is assumed that [P]t > [L]st, otherwise considerable amounts of free labeled ligand would always be present and would interfere with measurements. […] The FAM-labeled peptide was dissolved in dimethyl sulfoxide (DMSO) at 1 mM and diluted into experimental buffer. Readings were carried out with an Envision Multilabel Reader (PerkinElmer). […] Curve-fitting was carried out using Prism 4.0 (GraphPad). […] Negative control titrations of the ligands under investigation were also carried out with the fluorescently labeled peptide (in the absence of Mdm2) to ensure no interactions were occurring between the ligands and the FAM-labeled peptide. […] Measurements were taken a minimum of three times (biological replicates) and values are reported as geometric means of the replicates.

[8] = 0% FBS 4Hr, read-out: p53 reporter assay EC50
[9] = pH 7, aqueous buffer, kinetic from dmso stock, pH 7, PBS, read-out: Solubility
[10] = 0% FBS 4Hr, read-out: LDH: Cytotoxicity assay EC50
[11] = 10% FBS 16Hr, read-out: LDH: Cytotoxicity assay EC50

T1 sequence (Q00987 with tags, fused parts or gaps): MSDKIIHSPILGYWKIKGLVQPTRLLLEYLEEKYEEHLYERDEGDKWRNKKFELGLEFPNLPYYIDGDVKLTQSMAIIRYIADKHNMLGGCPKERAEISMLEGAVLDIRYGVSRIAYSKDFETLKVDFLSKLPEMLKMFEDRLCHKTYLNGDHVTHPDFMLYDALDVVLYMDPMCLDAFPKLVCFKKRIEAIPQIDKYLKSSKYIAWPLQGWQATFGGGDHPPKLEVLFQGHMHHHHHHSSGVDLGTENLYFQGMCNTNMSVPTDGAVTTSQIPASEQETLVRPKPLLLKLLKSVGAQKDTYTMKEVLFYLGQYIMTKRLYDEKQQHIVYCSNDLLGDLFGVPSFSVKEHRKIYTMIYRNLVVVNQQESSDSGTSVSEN

SMILES | EC50 [2, 8] [µM] | solubility kinetic [3, 9] [µM] | Nanoclick permeability assay % Effect [4] [%] | TETCHO: Counterscreen % Effect ([5]; 0% FBS 4Hr) [%] | EC50 ([5]; 0% FBS 4Hr) [µM] | logD [6] | EC50 [1, 10] [µM] | EC50 [1, 11] [µM] | LDH: Cytotoxicity assay % Effect (HCT116 cells; 0% FBS 4Hr) [%] | LDH: Cytotoxicity assay % Effect (HCT116 cells; 10% FBS 16Hr) [%] | p53 reporter assay % Effect ([2]; 0% FBS 4Hr) [%] | p53 reporter assay % Effect ([2]; 10% FBS 16Hr) [%] | cell entry EC50 (in vitro) [µM] | TETCHO: Counterscreen % Effect ([5]; 10% FBS 16Hr) [%] | EC50 ([5]; 10% FBS 16Hr) [µM] | other results
CC(=O)N[C@@H](CCC(=O)O)C(=O)N[C@@H](CCC(=O)O)C(=O)N[C@@H](CCC(=O)O)C(=O)N[C@@H](CCCCN=[N+]=[N-])C(=O)NCCCCCC(=O)N[C@H](C(=O)N[C@@H](CO)C(=O)N[C@@H](Cc1ccccc1)C(=O)N[C@]1(C)CCCCCCC=CCCC[C@@](C)(C(N)=O)NC(=O)[C@H](CC(C)C)NC(=O)[C@H](CC(C)C)NC(=O)[C@H](C)NC(=O)[C@H](Cc2c[nH]c3ccccc23)NC(=O)[C@H](Cc2c[nH]c3ccccc23)NC(=O)[C@H](Cc2ccc(O)cc2)NC(=O)[C@H](CCC(=O)O)NC1=O)[C@@H](C)O [MP-9662] (Ac-EEE[Lys(N3)][Ahx]TSF[R8]EYWWALL[S5]-NH2; staple 9-17) | > 50 | 33 (≈ 76 µg/mL) | 111.3 | 0.684 | > 50.6 | 1.86 |  |  |  |  |  |  |  |  |  | EC50 ([1]; LDH: Cytotoxicity assay EC50): > 50 µM; cell entry EC50 (in vitro; Nanoclick permeability assay EC50): 0.637 µM; TETCHO: Counterscreen % Effect ([5]; 0% FBS 16Hr): 0.2782%; EC50 ([5]; 0% FBS 16Hr): > 50 µM
CC(=O)N[C@@H](CCCCN=[N+]=[N-])C(=O)NCCC(=O)N[C@@H](CC(C)C)C(=O)N[C@H](C(=O)N[C@@H](Cc1ccccc1)C(=O)N[C@]1(C)CCCCCCC=CCCC[C@@](C)(C(=O)N[C@@H](CCO)C(=O)N[C@@H](CCO)C(=O)N[C@@H](Cc2ccccc2)C(=O)N[C@@H](CCO)C(=O)N[C@@H](CCO)C(=O)N[C@@H](Cc2ccccc2)C(N)=O)NC(=O)[C@H](CC2CCC2)NC(=O)[C@H](CCC(N)=O)NC(=O)[C@H](C)NC(=O)[C@H](Cc2c[nH]c3ccccc23)NC(=O)[C@H](Cc2ccc(O)cc2)NC(=O)[C@H](CCC(=O)O)NC1=O)[C@@H](C)O [MP-803] |  |  |  |  |  |  |  |  |  |  |  |  |  |  |  | solubility kinetic ([3]; pH 7, Solubility): 1 µM (≈ 2.44 µg/mL); cell entry EC50 ([4]; 4 h): 6.86 µM
CC(=O)N[C@@H](CCCCN=[N+]=[N-])C(=O)NCCC(=O)N[C@@H](CC(C)C)C(=O)N[C@H](C(=O)N[C@@H](Cc1ccccc1)C(=O)N[C@]1(C)CCCCCCC=CCCC[C@@](C)(C(=O)N[C@@H](C)C(=O)N[C@@H](CCC(=O)O)C(=O)N[C@@H](C)C(=O)N[C@@H](C)C(=O)N[C@@H](C)C(=O)N[C@H](C)C(N)=O)NC(=O)[C@H](CC2CCC2)NC(=O)[C@H](CCC(N)=O)NC(=O)[C@H](C)NC(=O)[C@H](Cc2c[nH]c3ccccc23)NC(=O)[C@H](Cc2ccc(O)cc2)NC(=O)[C@H](CCC(=O)O)NC1=O)[C@@H](C)O [MP-965, AZIDE-ATSP-7041 (E5A,S12A)] (Ac-[Lys(N3)][βAla]LTF[R8]EYWAQ[Cba][S5]AEAAA[dA]-NH2; staple 6-13) | 1.11 | 161 (≈ 358 µg/mL) | 110.3 | -2.385 | > 50.4 | 2.69 | > 50.7 | > 50.7 | -4.408 | 5.517 | 97.76 | 86.7 | 0.581 | -17.5 | > 50.4 | EC50 ([2]; read-out: Cell EC50 (16 hr, 10% FBS), p53 reporter assay, 16 hr, 10% FBS): 2.2 µM
CC(=O)N[C@@H](CCCCN=[N+]=[N-])C(=O)NCCC(=O)N[C@@H](CC(C)C)C(=O)N[C@H](C(=O)N[C@@H](Cc1ccccc1)C(=O)N[C@]1(C)CCCCCCC=CCCC[C@@](C)(C(=O)N[C@@H](CO)C(=O)N[C@@H](C)C(=O)N[C@@H](C)C(N)=O)NC(=O)[C@H](CC2CCC2)NC(=O)[C@H](CCC(N)=O)NC(=O)[C@H](C)NC(=O)[C@H](CCC(=O)O)NC(=O)[C@H](Cc2ccc(O)cc2)NC(=O)[C@H](CCC(=O)O)NC1=O)[C@@H](C)O [Peptide W7E] |  |  |  |  |  |  |  |  |  |  |  |  |  |  |  | shift of NanoClick permeability vs MP-081 ([4]; Glu scan): ~ 34 x
CC(=O)N[C@@H](CCCCN=[N+]=[N-])C(=O)NCCC(=O)N[C@@H](CC(C)C)C(=O)N[C@H](C(=O)N[C@@H](Cc1ccccc1)C(=O)N[C@]1(C)CCCCCCC=CCCC[C@@](C)(C(=O)N[C@@H](C)C(=O)N[C@@H](CC(N)=O)C(=O)N[C@@H](C)C(=O)N[C@@H](C)C(=O)N[C@@H](C)C(=O)N[C@H](C)C(N)=O)NC(=O)[C@H](CC2CCC2)NC(=O)[C@H](CCC(N)=O)NC(=O)[C@H](C)NC(=O)[C@H](Cc2c[nH]c3ccccc23)NC(=O)[C@H](Cc2ccc(O)cc2)NC(=O)[C@H](CCC(=O)O)NC1=O)[C@@H](C)O [MP-967, AZIDE-KK-ATSP-7041 (L1A,T2A,E5A,Q9A,S12A)] (Ac-[Lys(N3)][βAla]LTF[R8]EYWAQ[Cba][S5]ANAAA[dA]-NH2; staple 6-13) | 0.524 | 161 (≈ 356 µg/mL) | 137.2 | -0.6324 | > 50.4 | 3.08 | > 50.7 | > 50.7 | 5.243 | 11.93 | 98.42 | 97.47 | 3.89 | -28.5 | > 50.4 | EC50 ([2]; 10% FBS 16Hr, read-out: p53 reporter assay EC50): 0.937 µM
CC(=O)N[C@@H](CCCCN=[N+]=[N-])C(=O)NCCC(=O)N[C@@H](CC(C)C)C(=O)N[C@H](C(=O)N[C@@H](Cc1ccccc1)C(=O)N[C@]1(C)CCCCCCC=CCCC[C@@](C)(C(=O)N[C@@H](CC(C(=O)O)C(=O)O)C(=O)N[C@@H](C)C(=O)N[C@@H](C)C(=O)N[C@@H](C)C(=O)N[C@@H](C)C(=O)N[C@H](C)C(N)=O)NC(=O)[C@H](CC2CCC2)NC(=O)[C@H](CCC(N)=O)NC(=O)[C@H](C)NC(=O)[C@H](Cc2c[nH]c3ccccc23)NC(=O)[C@H](Cc2ccc(O)cc2)NC(=O)[C@H](CCC(=O)O)NC1=O)[C@@H](C)O [MP-897] (Ac-[Lys(N3)][βAla]LTF[R8]EYWAQ[Cba][S5][Gla]AAAA[dA]-NH2; staple 6-13) |  | 163 (≈ 370 µg/mL) |  |  |  | 2.25 |  |  |  |  |  |  | 2.27 |  |  | EC50 ([1]; 0% FBS 4Hr, read-out: LDH: Cytotoxicity assay: EC50): > 50.7 µM; EC50 ([1]; 10% FBS 16Hr, read-out: LDH: Cytotoxicity assay: EC50): > 50.7 µM; LDH: Cytotoxicity assay: % Effect (HCT116 cells; 0% FBS 4Hr): 6.465%; LDH: Cytotoxicity assay: % Effect (HCT116 cells; 10% FBS 16Hr): 20.53%; EC50 [7]: 0.79 µM; Proliferation % inhibition at 50 µM Ca Ski (Ca Ski cell line; 50 µM): -19.1%; EC50 (Ca Ski cell line; read-out: Proliferation EC50 Ca Ski (Off-target)): > 49.8 µM; EPSA (EPSA): 257 A^2; Kd (human Mdm2 1–125): < 0.001 µM
